Some results are limits rather than exact numbers.

Experimental findings from patent US10358458B2, “4′-vinyl substituted nucleoside derivatives as inhibitors of respiratory syncytial virus RNA replication” (Riboscience LLC, priority 2014, dated 2019) are described below.

For this experiment, the target named is T1, RSV polymerase (Human respiratory syncytial virus A, UniProt P28887).
T1 construct: RSV polymerase was obtained from RSV infected A549 cells; endogenous in cells; host or cells: RSV infected A549 cells (virus-encoded polymerase, detergent preparation)
T1 sequence (P28887 whole entry): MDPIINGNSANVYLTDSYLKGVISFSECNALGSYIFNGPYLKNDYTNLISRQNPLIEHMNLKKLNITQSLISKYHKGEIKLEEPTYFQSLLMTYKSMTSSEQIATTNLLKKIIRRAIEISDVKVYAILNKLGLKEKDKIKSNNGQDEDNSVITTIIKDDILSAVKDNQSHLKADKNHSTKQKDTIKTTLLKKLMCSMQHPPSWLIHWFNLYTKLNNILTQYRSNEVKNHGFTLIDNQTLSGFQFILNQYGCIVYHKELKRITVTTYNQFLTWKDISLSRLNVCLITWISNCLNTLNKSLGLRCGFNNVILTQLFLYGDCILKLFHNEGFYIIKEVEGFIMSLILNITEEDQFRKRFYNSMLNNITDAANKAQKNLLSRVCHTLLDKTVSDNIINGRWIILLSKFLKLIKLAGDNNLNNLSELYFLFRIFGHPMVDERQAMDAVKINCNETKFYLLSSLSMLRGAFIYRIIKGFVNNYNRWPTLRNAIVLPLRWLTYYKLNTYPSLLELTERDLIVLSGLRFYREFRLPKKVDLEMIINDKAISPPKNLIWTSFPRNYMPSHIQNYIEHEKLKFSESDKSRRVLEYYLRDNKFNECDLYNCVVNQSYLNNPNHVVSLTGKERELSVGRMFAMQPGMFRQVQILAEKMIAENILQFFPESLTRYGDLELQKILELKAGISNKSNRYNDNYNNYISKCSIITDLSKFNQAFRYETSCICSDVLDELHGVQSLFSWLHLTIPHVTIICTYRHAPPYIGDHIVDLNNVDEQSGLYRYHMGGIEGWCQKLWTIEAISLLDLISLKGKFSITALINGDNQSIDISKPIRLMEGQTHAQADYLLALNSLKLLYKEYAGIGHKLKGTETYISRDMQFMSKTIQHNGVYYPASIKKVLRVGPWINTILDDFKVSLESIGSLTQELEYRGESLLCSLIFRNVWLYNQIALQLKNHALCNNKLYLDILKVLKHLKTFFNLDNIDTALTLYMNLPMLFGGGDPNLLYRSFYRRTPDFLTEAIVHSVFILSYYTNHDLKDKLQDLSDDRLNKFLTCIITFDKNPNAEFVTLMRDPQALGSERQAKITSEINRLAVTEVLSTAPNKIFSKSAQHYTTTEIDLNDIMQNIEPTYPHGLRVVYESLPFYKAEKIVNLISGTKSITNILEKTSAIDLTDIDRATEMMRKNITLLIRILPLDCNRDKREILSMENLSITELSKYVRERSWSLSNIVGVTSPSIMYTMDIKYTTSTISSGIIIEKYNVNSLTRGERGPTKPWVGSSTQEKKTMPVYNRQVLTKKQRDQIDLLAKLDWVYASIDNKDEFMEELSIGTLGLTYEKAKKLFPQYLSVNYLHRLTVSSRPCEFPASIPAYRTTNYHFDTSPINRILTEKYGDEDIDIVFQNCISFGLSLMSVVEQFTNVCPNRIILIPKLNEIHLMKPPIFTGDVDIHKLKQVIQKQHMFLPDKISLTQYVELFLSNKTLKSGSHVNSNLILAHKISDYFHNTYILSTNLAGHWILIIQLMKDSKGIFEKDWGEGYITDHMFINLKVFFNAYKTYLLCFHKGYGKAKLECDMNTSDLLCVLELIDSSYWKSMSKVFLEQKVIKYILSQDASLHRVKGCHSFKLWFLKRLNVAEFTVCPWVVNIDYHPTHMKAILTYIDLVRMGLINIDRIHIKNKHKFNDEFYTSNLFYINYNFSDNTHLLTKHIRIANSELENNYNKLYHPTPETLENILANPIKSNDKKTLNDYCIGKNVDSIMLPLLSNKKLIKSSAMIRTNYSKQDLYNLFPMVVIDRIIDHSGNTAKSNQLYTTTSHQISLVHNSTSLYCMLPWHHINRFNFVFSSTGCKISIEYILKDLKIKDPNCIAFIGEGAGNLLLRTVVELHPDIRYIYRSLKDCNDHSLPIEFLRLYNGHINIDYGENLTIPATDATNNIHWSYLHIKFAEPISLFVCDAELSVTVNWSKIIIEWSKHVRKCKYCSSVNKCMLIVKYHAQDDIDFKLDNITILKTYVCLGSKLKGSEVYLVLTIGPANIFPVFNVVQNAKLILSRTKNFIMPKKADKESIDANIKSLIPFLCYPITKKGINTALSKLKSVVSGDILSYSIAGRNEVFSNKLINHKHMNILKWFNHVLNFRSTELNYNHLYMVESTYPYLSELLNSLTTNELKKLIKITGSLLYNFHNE
T1 sequence (P03421 whole entry, further chain): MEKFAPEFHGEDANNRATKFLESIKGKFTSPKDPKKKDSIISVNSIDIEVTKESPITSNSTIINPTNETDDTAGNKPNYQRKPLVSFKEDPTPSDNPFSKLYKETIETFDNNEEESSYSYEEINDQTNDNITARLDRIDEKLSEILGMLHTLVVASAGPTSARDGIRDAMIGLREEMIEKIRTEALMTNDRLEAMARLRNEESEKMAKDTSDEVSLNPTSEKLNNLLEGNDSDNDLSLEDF
Put plainly: RSV polymerase assay (inhibition of RNA synthesis by RSV polymerase). The note with it: nucleoside triphosphate analogs; RSV polymerase from RSV infected A549 cells; 33P-CTP incorporation into nascent RSV RNA. It is filed as biochemical. How it is done:
The RSV polymerase assay measures the ability of the nucleoside triphosphates derived from compounds of formula I to inhibit the RSV polymerase. RSV polymerase was obtained from RSV infected A549 cells. RSV polymerase activity was measured using RSV polymerase preparation (stored in 10 mM Tris-acetate (pH 8), 10 mM K-acetate, 1.5 mM MgCl2, 0.5% deoxycholate and 1% Tween-40) in the a buffer containing 50 mM Tris-HCL, pH8, 100 mM KCl, 5 mM MgCl2, 1 mM DTT and 0.2 mg/ml BSA in the presence of 50 μM ATP, GTP and UTP, 1 μM CTP and 3.5 μCi ^33P-labeled CTP (10 mCi/mL). The amount of nucleotides incorporated into nascent RSV RNA was determined TCA precipitation and scintillation counting.
The polymerase and replication activities of RSV were measured in the presence and absence of different concentrations of compounds to determine the degree of inhibition by the compounds.
The compound concentration at which the enzyme-catalyzed rate is reduced by 50% (IC50) was calculated by fitting the data to equation (1),
[formula] where “Y” corresponds to the relative enzyme activity (in %), “% Min” is the residual relative activity at saturating compound concentration, “% Max” is the relative maximum enzymatic activity, X corresponds to the compound concentration, and “S” is the Hill coefficient (or slope).
With `C=C[C@]1(COP(=O)(O)OP(=O)(O)OP(=O)(O)O)O[C@@H](n2ccc(=O)[nH]c2=O)[C@H](O)[C@@H]1O` [II-1], the IC50 was less than 1000 nM.

In turn, `C=C[C@]1(COP(=O)(O)OP(=O)(O)OP(=O)(O)O)O[C@@H](n2cnc3c(N)ncnc32)[C@H](O)[C@@H]1O` [II-3] gave an IC50 of less than 1000 nM.

In the case of `C=C[C@]1(COP(=O)(O)OP(=O)(O)OP(=O)(O)O)O[C@@H](n2ccc(N)nc2=O)[C@H](O)[C@@H]1O` [II-2], the concentration for half-maximal inhibition (IC50) was less than 1000 nM.
